We go through 14 compounds from patent US4892870A, “Oxaza heterocycles and pharmaceutical compositions containing same” (Biofor, Ltd., priority 1988, dated 1990).

For series [1] the following is noted: cited from G. Moore, U.S. Pat. No. 4,337,345; cited from earlier work.
Another series has as its system yeast-induced fever. As to the kind of experiment: Antipyretic Evaluation (yeast-induced fever). Format: in vivo, male Sprague-Dawley rats. The settings on record: 300 mg/kg oral; Example 1 in olive oil, Example 2 in 0.25% methylcellulose; all decreases significant at p <0.05 (paired-samples Student's t-Test). As for the experimental part:
Antipyretic: This activity was evaluated by creating a yeast-induced fever in rats according to a modified method of the procedure described by Loux e al in "Toxicology and Applied Pharmacology", Vol. 22: page 672 (1972). In this assay rats injected with yeast in distilled water were dosed with test compounds, aspirin (positive control) and a vehicle (negative control) and the observed differences in body temperature were analyzed statistically.
Antipyretic activity was evaluated using a modification of the test described by Loux et al, in Toxicology and Applied Pharmacology, 22:672(1972), that is, yeast-induced fever in rats. Each test group consisted of ten male Sprague-Dawley rats (Charles River Laboratories), weighing 180-225 grams each. Eighteen hours prior to compound administration the rats were weighed and body temperatures were recorded. Food was removed with water available ad libitum.
Each animal was injected subcutaneously into the central dorsal region with five (5.0) ml portions of a 15% (150 mg/1.0 ml) suspension of Fleischman's yeast in distilled water.
Test compounds suspended in 0.25% methylcellulose (0.25% MC) or olive oil were administered orally by gavage nineteen hours following the yeast injection. Body temperatures were taken and recorded one hour after compound administration. Aspirin (300 mg/kg) was the reference standard drug administered with each antipyretic study. The mean temperature of the compound-treated groups, positive control group (Aspirin) and negative control group (vehicle) were calculated at 18 hours and 20 hours. The data was analyzed statistically using a paired-samples Student's t-Test.

The test system of series [2] is hind paw edema. The experiment in a line: Adjuvant Arthritis Assay; Developing (percent inhibition of hind paw edema). Format: in vivo, female Lewis rats. The settings on record: Rattus norvegicus, 96 h, once daily for 4 days in 0.25% methylcellulose, paw volumes on fifth day. How it is done: Anti-Inflammatory: This activity was evaluated via a modification of the Adjuvant Arthritis Assay (AA) described by S. Wong et al in "The Journal of Pharmacology and Experimental Therapeutics", Vol. 185. […] This assay measures the ability of the test compound to antogonize local edema, a characteristic of the inflammatory response. […] The left and right rear paws of female Lewis rats (Charles River Laboratories) weighing 160-180 grams each were measured by mercury displacement prior to injection (Day Zero). Adjuvant arthritis was induced in this rat colony by subcutaneous injection of Mycobacterium butyricum (0.75 mg in 0.1 ml light mineral oil, Fisher) using an automated Cornwall syringe. On days 11-15 post-adjuvant the injected animals with 0.25 to 0.75 ml. paw edema were selected and distributed evenly, according to edema size, into control and experimental groups of ten rats each. Vehicle control and drug treatments were assigned to the groups at random. The assay was performed using a variable dose level for each test compound per kilogram per day in 0.25% methylcellulose. vehicle. All animals were dosed once daily for 4 days and on the fifth day both hind paw volumes were again measured using mercury displacement. The hind paw edema was determined for each rat by subtracting the hind paw volume measured on Day Zero from the hind paw volume measured on the fifth day of the study. Group means were determined and the drug effect was calculated as percent inhibition of the hind paw edema according to the following equation: [formula] […] The known anti-inflammatory NAPROXEN was also tested for comparison purposes.

The next series relates to acetylcholine writhing. As to the kind of experiment: Acetylcholine Writhing Assay (analgesic). It is filed as in vivo, male CD-1 mice. Conditions: Mus musculus; oral, 45 min before intraperitoneal acetylcholine; writhes counted 10 minutes. As for the experimental part:
Analgesic: The "Acetylcholine Writhing Assay" (ACH) of collier et al [Nature: Vol. 204: page 1316 (1964)] was employed. In this study the test compounds were administered orally to mice and 45 minutes later the mice were injected with acetylcholine. The frequency of writhing was counted in each animal and the response elicited in the drug-treated mice was compared with the response of those given acetylcholine alone.
Analgesic activity was evaluated via the mouse acetylcholine writhing test using a modification of the procedure described by Collier, et al in Nature (New Biol.) Vol. 204; page 1316 (1964) and Br. J. Pharmacol, Chemother, Vol. 32: page 295 (1968). Each test group consisted of ten male CD-1 mice (Charles River Laboratories) weighing 18-28 grams each. Test compounds suspended in a mixture of 0.25% methylcellulose solution […] were administered orally by gavage and fort five minutes later the mice were injected intraperitoneally with acetylcholine (0.55 mg/ml in 0.25% methylcellulose). The number of writhes in each group of mice were counted for 10 minutes immediately following the injection of acetylcholine and the percent inhibition was calculated as follows: [formula] Four dose levels were used to calculate the ED50. of each test compounds.

The nature of the next series: LD50. Conditions: rat, in vivo, po.
Series [3] relates to hind paw edema. As to the kind of experiment: Adjuvant Arthritis Assay; Immunomodulatory. It is filed as in vivo, Lewis female rats. The settings on record: 50 mg/kg oral, Day 5 to 9 inclusive; edema on Day 15. How it is done:
Immunomodulatory: This activity was determined by using a Modified Adjuvant Assay procedure in which female rats were injected with Mycobacterium butyricum to induce hind paw edema. The test compounds were administered orally and the difference in volume between dosed and non-dosed paws was determined.
Lewis female rats were injected in the tail subcutaneously with Mycobacterium butyricum (0.75 mg in 0.1 ml light mineral oil, Fisher) on Day Zero. Prior to injection the volumes of the left and right rear paws were measured by mercury displacement. All rats were dosed orally with vehicle or test compounds on Day 5 to 9 inclusive. The volume of both hind paws were determined on Day 15 and the percent inhibitions were calculated based upon average edema on Day 15 relative to the edema mean in the control group.

The next series concerns paw edema. As to the kind of experiment: Adjuvant Arthritis Assay; Established (chronic anti-inflammatory and antiarthritic). It is filed as in vivo, rats. Conditions: Rattus norvegicus, 552 h, oral once daily on days 19-22, paw volumes day 23.

Each structure is given as a SMILES string.

`CC(C)(C)c1cc(S(=O)(=O)c2ccccc2)cc(C(C)(C)C)c1O` [2,6-di-(tert-butyl)-4-(phenylsulfonyl)phenol]: the anti-inflammatory activity entry in series [1] is “absence of anti-inflammatory activity”. `CC(C)(C)c1cccc(C(C)(C)C)c1O` [2,6-di-(tert-butyl)phenol]: the anti-inflammatory activity result in series [1] is recorded as “absence of anti-inflammatory activity”. `Cc1cc(C(C)(C)C)c(O)c(C(C)(C)C)c1` [3,5-di(tert-butyl)-4-hydroxytoluene]: the anti-inflammatory activity result in series [1] is “little or no value as an anti-inflammatory agent”. Consider `CC(C)(C)c1cc(C(=O)c2ccccc2Cl)cc(C(C)(C)C)c1O` [4-(2-chlorobenzoyl)-2,6-di-(tert-butyl)phenol], for which the anti-inflammatory activity entry in series [1] is on record as “absence of anti-inflammatory activity”.

For the compound `CC(C)(C)c1cc(C(=O)c2cc(C(=O)O)ccc2Cl)cc(C(C)(C)C)c1O` [4-(5-carboxy-2-chlorobenzoyl)-2,6-di-(tert-butyl)phenol], in series [1], the anti-inflammatory activity entry was “absence of anti-inflammatory activity”. Consider `CC(=O)c1cc(C(C)(C)C)c(O)c(C(C)(C)C)c1` [4-acetyl-2,6-(di-tert-butyl)phenol], for which, in series [1], the anti-inflammatory activity entry is “absence of anti-inflammatory activity”. On to `CC(C)(C)c1cc(C(N)=O)cc(C(C)(C)C)c1O` [4-carboxamido-2,6-di-(tert-butyl)phenol], for which the anti-inflammatory activity entry in series [1] is listed as “absence of anti-inflammatory activity”.

`CCCCCCCCc1cc(C(C)(C)C)c(O)c(C(C)(C)C)c1` [4-n-octyl-2,6-di-(tert-butyl)phenol]: in series [1], the anti-inflammatory activity entry is given as “absence of anti-inflammatory activity”. On to `CC(=O)Oc1ccccc1C(=O)O` [Aspirin, reference compound], for which, in the series on yeast-induced fever, the “Change in Temperature, 18-20 Hour Period” value is -2.05 °C. Take `CN1OC/C(=C\c2cc(C(C)(C)C)c(O)c(C(C)(C)C)c2)C1=O` [Example 1 (E-Isomer), 4-(3,5-di-tert-butyl-4-hydroxybenzylidene)-2-methyl-3-isoxazolidinone]: the ED50 (in general, the dose at which the effect has come halfway, by size or by number of responders) was 20 mg/kg with hind paw edema [2] and 18 mg/kg in the series on acetylcholine writhing. `CN1OC/C(=C/c2cc(C(C)(C)C)c(O)c(C(C)(C)C)c2)C1=O` [Example 1 (Z-Isomer), 4-(3,5-di-tert-butyl-4-hydroxybenzylidene)-2-methyl-3-isoxazolidinone]: the median effective dose (ED50) with hind paw edema [2] stood at 36 mg/kg. On to `CN1OCC(=Cc2cc(C(C)(C)C)c(O)c(C(C)(C)C)c2)C1=O` [Example 1, 4-(3,5-Di-tert-Butyl-4-Hydroxybenzylidene)-2-Methyl-3-Isoxazolidinone; E and Z Isomers], for which the LD50 (as a rule, the dose at which mortality reaches 50%) in the series “LD50” is > 1000 mg/kg. Further, the % Inhibition – broadly, the share of the control response that was lost under treatment – with hind paw edema [3] was found to be 43%. Further, the “Change in Temperature, 18-20 Hour Period” value in the series with yeast-induced fever is -1.33 °C. The ED50 in the series on paw edema is 44 mg/kg. Take `CN1OCCC(=Cc2cc(C(C)(C)C)c(O)c(C(C)(C)C)c2)C1=O` [Example 2, Dihydro-4-(3,5-Di-tert-Butyl-4-Hydroxybenzylidene)-2-Methyl-2H-1,2-Oxazin-3(4H)-one]: the ED50 with hind paw edema [2] is 7 mg/kg; in the series on acetylcholine writhing, 2.8 mg/kg; in the series on paw edema it was 8 mg/kg. For the same compound, the LD50 in “LD50” is > 1000 mg/kg. Further, in the series with hind paw edema [3], the “% Inhibition” value is on record as 39%. For the same compound, in the series on yeast-induced fever, the “Change in Temperature, 18-20 Hour Period” value is -1.33 °C. As for `COc1ccc2cc([C@H](C)C(=O)O)ccc2c1` [NAPROXEN, reference compound], the figures for the ED50 with hind paw edema [2], with acetylcholine writhing and in the series with paw edema were 28 mg/kg, 6.2 mg/kg and 28 mg/kg, respectively.
